Results as given in PubChem BioAssay (NCI).
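Exposure lasted 48 hours, with cells grown in 96-well plates and compounds tested at five concentrations. At the TGI there is no net growth.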

Test system: TK-10 renal
Experiment: NCI tumour cell line growth inhibition, 48 h

Structure (SMILES)	TGI [µM]
O=c1sc2ccccc2n1CC1CS1 (stereo not drawn)	> 100
Cc1n(Cc2ccccc2)c2c([n+]1C)C(=O)c1ccccc1C2=O	1.67
O=C1c2cccc3c2C(=O)c2c(cccc21)OCCOCCOCCOCCO3	> 100
C=CCc1c(O)c2c(c3oc(=O)cc(C)c13)CC(C)O2 (stereo not drawn)	> 100
CN(C)c1ccc(/C=c2/c3ccccc3n3c2c2c([n+]3C)CCCC2)cc1	1.55
CCOc1ncn(-c2ccc(NC(=S)Nc3ncccn3)cc2)n1	> 100
CC1(C)OC(C(=O)Nc2cc3c4ccccc4ccc3c3ccccc23)C(C(=O)N2CCCCC2)O1 (stereo not drawn)	> 100
CCN(CC)CCNc1ccc2nnn3c4ccc(OCCN(CC)CC)cc4c(=O)c1c23	> 100
COc1cc2c(cc1OC)C(CC1=C(c3ccccc3)CN3CCc4cc(OC)c(OC)cc4C3C1)NCC2 (stereo not drawn)	32.7
CC(=O)Nc1ccc(N=Nc2c(O)c(S(=O)(=O)O)cc3cc(S(=O)(=O)O)ccc23)cc1	> 100
Nc1c(C(=O)O)nnc2ccc(Cl)cc12	> 100
O=C(O)C(O)C(O)C(O)C(O)c1nc2ccccc2s1 (stereo not drawn)	29.3

Test system: SNB-75 CNS
Experiment: NCI tumour cell line growth inhibition, 48 h

Structure (SMILES)	TGI [µM]
CCCC(=O)OCC1OC(n2ccc(N)nc2=O)C(OC(=O)CCC)C1OC(=O)CCC (stereo not drawn)	> 100
O=S(=O)(O)CCCc1cccc2ccccc12	> 100
CC(=O)OC1/C=C(\C)C(OC(C)=O)C/C=C(/C)CCC2C(/C=C/C1=O)C2(C)C (stereo not drawn)	93.1
NC(CCCCCP(=O)(c1ccccc1)C1C=CC=CC1)C(=O)O (stereo not drawn)	> 100
COc1ccc(/C=C2\CCNC2=O)cc1	> 79.5
CC(C)Cc1ccc(C(C)C(=O)N2CCN(/C=C/c3ccccc3)CC2)cc1 (stereo not drawn)	29.1
O=c1cc[nH]c(=O)[nH]1	> 953
Cc1n(Cc2ccccc2)c2c([n+]1C)C(=O)c1ccccc1C2=O	0.219
O=C1c2cccc3c2C(=O)c2c(cccc21)OCCOCCOCCOCCO3	> 100
C=CCc1c(O)c2c(c3oc(=O)cc(C)c13)CC(C)O2 (stereo not drawn)	> 100
CN(C)c1ccc(/C=c2/c3ccccc3n3c2c2c([n+]3C)CCCC2)cc1	0.265
CCOc1ncn(-c2ccc(NC(=S)Nc3ncccn3)cc2)n1	> 100
CC1(C)OC(C(=O)Nc2cc3c4ccccc4ccc3c3ccccc23)C(C(=O)N2CCCCC2)O1 (stereo not drawn)	> 100
COc1cc2c(cc1OC)C(CC1=C(c3ccccc3)CN3CCc4cc(OC)c(OC)cc4C3C1)NCC2 (stereo not drawn)	28
CC(=O)Nc1ccc(N=Nc2c(O)c(S(=O)(=O)O)cc3cc(S(=O)(=O)O)ccc23)cc1	> 100
Nc1c(C(=O)O)nnc2ccc(Cl)cc12	> 100
O=C(O)C(O)C(O)C(O)C(O)c1nc2ccccc2s1 (stereo not drawn)	34.7

Test system: SF-539 CNS
Experiment: NCI tumour cell line growth inhibition, 48 h

Structure (SMILES)	TGI [µM]
CCCC(=O)OCC1OC(n2ccc(N)nc2=O)C(OC(=O)CCC)C1OC(=O)CCC (stereo not drawn)	> 100
O=S(=O)(O)CCCc1cccc2ccccc12	> 100
CC(=O)OC1/C=C(\C)C(OC(C)=O)C/C=C(/C)CCC2C(/C=C/C1=O)C2(C)C (stereo not drawn)	> 100
NC(CCCCCP(=O)(c1ccccc1)C1C=CC=CC1)C(=O)O (stereo not drawn)	> 100
COc1ccc(/C=C2\CCNC2=O)cc1	> 100
CC(C)Cc1ccc(C(C)C(=O)N2CCN(/C=C/c3ccccc3)CC2)cc1 (stereo not drawn)	28.9
CO/N=C(\C)c1ccc(Nc2nc3ccccc3c3occc23)cc1	27.5
O=c1cc[nH]c(=O)[nH]1	926
O=P(O)(O)CCP(=O)(O)O	> 100
O=c1sc2ccccc2n1CC1CS1 (stereo not drawn)	> 100
Cc1n(Cc2ccccc2)c2c([n+]1C)C(=O)c1ccccc1C2=O	0.179
O=C1c2cccc3c2C(=O)c2c(cccc21)OCCOCCOCCOCCO3	> 100
C=CCc1c(O)c2c(c3oc(=O)cc(C)c13)CC(C)O2 (stereo not drawn)	> 100
CN(C)c1ccc(/C=c2/c3ccccc3n3c2c2c([n+]3C)CCCC2)cc1	1.42
CCOc1ncn(-c2ccc(NC(=S)Nc3ncccn3)cc2)n1	33.5
CC1(C)OC(C(=O)Nc2cc3c4ccccc4ccc3c3ccccc23)C(C(=O)N2CCCCC2)O1 (stereo not drawn)	> 100
CCN(CC)CCNc1ccc2nnn3c4ccc(OCCN(CC)CC)cc4c(=O)c1c23	> 100
Nc1c(C(=O)O)nnc2ccc(Cl)cc12	> 100
O=C(O)C(O)C(O)C(O)C(O)c1nc2ccccc2s1 (stereo not drawn)	34.1

Test system: KM12 colon
Experiment: NCI tumour cell line growth inhibition, 48 h

Structure (SMILES)	TGI [µM]
CCCC(=O)OCC1OC(n2ccc(N)nc2=O)C(OC(=O)CCC)C1OC(=O)CCC (stereo not drawn)	> 100
O=S(=O)(O)CCCc1cccc2ccccc12	> 100
CC(=O)OC1/C=C(\C)C(OC(C)=O)C/C=C(/C)CCC2C(/C=C/C1=O)C2(C)C (stereo not drawn)	> 100
NC(CCCCCP(=O)(c1ccccc1)C1C=CC=CC1)C(=O)O (stereo not drawn)	> 100
COc1ccc(/C=C2\CCNC2=O)cc1	> 100
CC(C)Cc1ccc(C(C)C(=O)N2CCN(/C=C/c3ccccc3)CC2)cc1 (stereo not drawn)	31.7
CO/N=C(\C)c1ccc(Nc2nc3ccccc3c3occc23)cc1	36.4
O=c1cc[nH]c(=O)[nH]1	846
O=P(O)(O)CCP(=O)(O)O	> 100
O=c1sc2ccccc2n1CC1CS1 (stereo not drawn)	> 100
Cc1n(Cc2ccccc2)c2c([n+]1C)C(=O)c1ccccc1C2=O	0.708
CN(C)c1ccc(/C=c2/c3ccccc3n3c2c2c([n+]3C)CCCC2)cc1	0.539
CCOc1ncn(-c2ccc(NC(=S)Nc3ncccn3)cc2)n1	> 100
CC1(C)OC(C(=O)Nc2cc3c4ccccc4ccc3c3ccccc23)C(C(=O)N2CCCCC2)O1 (stereo not drawn)	> 100
CCN(CC)CCNc1ccc2nnn3c4ccc(OCCN(CC)CC)cc4c(=O)c1c23	84.5
COc1cc2c(cc1OC)C(CC1=C(c3ccccc3)CN3CCc4cc(OC)c(OC)cc4C3C1)NCC2 (stereo not drawn)	39.1
CC(=O)Nc1ccc(N=Nc2c(O)c(S(=O)(=O)O)cc3cc(S(=O)(=O)O)ccc23)cc1	> 100
Nc1c(C(=O)O)nnc2ccc(Cl)cc12	> 100
O=C(O)C(O)C(O)C(O)C(O)c1nc2ccccc2s1 (stereo not drawn)	71.1

Test system: LOX IMVI melanoma
Experiment: NCI tumour cell line growth inhibition, 48 h

Structure (SMILES)	TGI [µM]
CCCC(=O)OCC1OC(n2ccc(N)nc2=O)C(OC(=O)CCC)C1OC(=O)CCC (stereo not drawn)	> 100
O=S(=O)(O)CCCc1cccc2ccccc12	> 100
CC(=O)OC1/C=C(\C)C(OC(C)=O)C/C=C(/C)CCC2C(/C=C/C1=O)C2(C)C (stereo not drawn)	> 100
NC(CCCCCP(=O)(c1ccccc1)C1C=CC=CC1)C(=O)O (stereo not drawn)	> 100
COc1ccc(/C=C2\CCNC2=O)cc1	> 100
CC(C)Cc1ccc(C(C)C(=O)N2CCN(/C=C/c3ccccc3)CC2)cc1 (stereo not drawn)	33.1
CO/N=C(\C)c1ccc(Nc2nc3ccccc3c3occc23)cc1	32.1
O=c1cc[nH]c(=O)[nH]1	866
O=P(O)(O)CCP(=O)(O)O	> 100
O=c1sc2ccccc2n1CC1CS1 (stereo not drawn)	> 100
Cc1n(Cc2ccccc2)c2c([n+]1C)C(=O)c1ccccc1C2=O	0.401
O=C1c2cccc3c2C(=O)c2c(cccc21)OCCOCCOCCOCCO3	> 100
C=CCc1c(O)c2c(c3oc(=O)cc(C)c13)CC(C)O2 (stereo not drawn)	> 100
CN(C)c1ccc(/C=c2/c3ccccc3n3c2c2c([n+]3C)CCCC2)cc1	1.39
CCOc1ncn(-c2ccc(NC(=S)Nc3ncccn3)cc2)n1	37.9
CC1(C)OC(C(=O)Nc2cc3c4ccccc4ccc3c3ccccc23)C(C(=O)N2CCCCC2)O1 (stereo not drawn)	25.3
COc1cc2c(cc1OC)C(CC1=C(c3ccccc3)CN3CCc4cc(OC)c(OC)cc4C3C1)NCC2 (stereo not drawn)	33.6
Nc1c(C(=O)O)nnc2ccc(Cl)cc12	> 100
O=C(O)C(O)C(O)C(O)C(O)c1nc2ccccc2s1 (stereo not drawn)	36.7

Test system: MDA-MB-231 breast
Experiment: NCI tumour cell line growth inhibition, 48 h

Structure (SMILES)	TGI [µM]
O=S(=O)(O)CCCc1cccc2ccccc12	> 100
NC(CCCCCP(=O)(c1ccccc1)C1C=CC=CC1)C(=O)O (stereo not drawn)	> 100
